Data from patent US3966744A, “Spin labeled compounds” (priority 1974, dated 1976).
“And” between values parts separate entries of the source, which are not always exact repeats. Identical values can stand only once. Counter-ions that a name gives are not always drawn. Like-named read-outs stand apart in the source and are kept apart here.

Assays:
[1] = tested on: supported morphine antibodies; test: Binding of free radical labeled morphine to supported morphine antibodies (ESR); set-up: species or system rabbit; conditions: pH 8 borate buffer, 10^-4 M label, 2 hours
[2] = Storage stability of the cocaine assay spin label (binding constant); type: physicochemical; conditions: storage in distilled water, substantially metal ion free, carbon dioxide bubbled through
Procedure: The spin labeled compound employed was prepared according to Example 7.1.

dinitrophenyl antibodies = test: Spin immunoassay with labeled dinitrophenyl hapten and dinitrophenyl antibodies (ESR); type: binding; conditions: increasing amounts, 10^-5 M solution in water, maximum 14 μl
Procedure: (The antibodies were prepared according to Eisen, et al., JACS, 75, 4583 (1953) and the labeled hapten was prepared in accordance with Hsia, et al, Archives of Biochemistry and Biophysics 132, 466 (1969)). The following procedure was employed. The quantities of the two compounds were chosen by adding small portions of the haptens to the antibody solution until the ESR signal intensity began to rise sharply with addition of each portion. At this point, all the binding sites on the antibodies were occupied by the label and the addition was stopped. Increasing amounts of N-epsilon-dinitrophenyllysine were then added to the solution.
The labeled hapten was dissolved in 20 percent aq. methanol at about 1-2 × 10^-^5 M concentration. Approximately 10 μl of the antibody solution and 10-20 μl of the labeled hapten solution were combined and varying amounts of 10^-^5 M solution of N-epsilon-dinitrophenyllysine in water added, the maximum being 14 μl.
By using appropriate standards, the ESR signal intensity may be related to the concentration of the N-epsilon dinitrophenyllysine in solution. Therefore, by taking an unknown solution suspected of having such a hapten, and introducing a standardized amount of the antibody-hapten complex, one can rapidly determine the concentration of the N-epsilon dinitrophenyllysine in solution.

phenobarbital antibody = test: Phenobarbital spin immunoassay; conditions: 1 × 10^-5 M (2.2-2.6 μg/ml), pH 7, 10 µM
secobarbital antibody = test: Secobarbital (seconal) spin immunoassay
Amphetamine antibody = test: Amphetamine spin immunoassay; type: binding, rabbit; conditions: for mobilization with urine of individuals who indicated taking cross reacting substances: six of 100 urines, background 10% or less
Procedure: Two plastic cups were employed. In one cup was 2.5 μl of 0.2 M sodium dichromate. In the other cup was 5.0 μl of antibody solution. The sample was transferred employing a 25 μl Oxford Sampler and introduced into the cup containing dichromate. The dichromate sample solution was agitated by means of the sample, drawn up with the sampler and introduced into the cup containing antibody, without touching the antibody. To the resulting solution was then added 5 μl of spin label, the sample was then stirred with an ESR capillary tube, the sample allowed to rise into the capillary and the spectrum read.

antibody (cocaine assay) = type: binding, rabbit; conditions: read from graph
morphine antibody = test: Detection of morphine and its metabolite in urine by spin immunoassay (ESR); type: binding, rabbit
morphine antibodies = test: Morphine spin immunoassay (ESR), specificity; conditions: spin label of Example 2.1
[3] = tested on: antibody (methadone assay); type: binding, rabbit; conditions: 3.4 μg/ml
Procedure: The spin immunoassay was carried out similarly to the prior assays. Two plastic cups were employed, one cup containing 5 μl of 0.2 molar sodium dichromate and the second 5 μl of borate buffered antibody at pH 8. […] To the dichromate is added 50 μl of sample and a 20 μl aliquot is transferred from the first cup to the second cup containing the antibody solution.
Fifty-five urine samples were tested according to the above procedure.

[4] = urine samples 6-10 of drug takers, percentage of maximum increase with high concentrations of morphine, drug taken

With `CN1CC[C@]23c4c5ccc(OCC(=O)NC6CC(C)(C)N([O])C(C)(C)C6)c4O[C@H]2[C@@H](O)C=C[C@H]3[C@H]1C5` [Example 2.2, 4-[2'(O^3" Morphino)acetamido]-2,2,6,6-tetramethylpiperidino-1-oxyl] the “binding of the free radical labeled morphine to the receptor (ESR signals)” value [1] was “broad ESR signals indicating the binding of the free radical labeled morphine to the receptor”.
With `COC(=O)[C@H]1[C@@H](OC(=O)c2ccc(NC(=O)C3CC(C)(C)N([O])C3(C)C)cc2)C[C@@H]2CC[C@H]1N2C` (some centres unmarked) [Example 7.1] the “binding constant on storage of the spin label” value [2] was “the binding constant diminished with time unless the spin label was stored at pH 5 in the absence of any buffer”.
For `NC(CCCCNc1ccc([N+](=O)[O-])cc1[N+](=O)[O-])C(=O)O` (centres unmarked) [N-epsilon-dinitrophenyllysine], the “ESR signal on addition to antibodies-labeled hapten complex” value (dinitrophenyl antibodies) was “an increase in the ESR signal was observed”.
In the case of `CCC1(CCC(C)C)C(=O)NC(=O)NC1=O` [amobarbital], the “% Mobilization” value (phenobarbital antibody) is reported as 16% and the “minimum concentration that could be detected” value (secobarbital antibody) is reported as 2.5 µg/mL.
With `CC(N)Cc1ccccc1` (centres unmarked) [amphetamine.HCl] the “% Mobilization” value (Amphetamine antibody; 1.7 μg/ml (1.1 × 10^-5 M)) was 26%.
With `CC(N)Cc1ccccc1` (centres unmarked) [amphetamine] the “recognition by the amphetamine antibody” value (Amphetamine antibody) was “recognizes”, the “peak ratio (amphetamine/saline)” value (Amphetamine antibody; 10^-3 molar amphetamine, loading ratio 0.95) was 5 and the “mobilization with urine of individuals who indicated taking cross reacting substances” value (“mobilization with urine” below) (Amphetamine antibody) was “greater than 14%”.
With `CC(Cc1ccccc1)N(C)Cc1ccccc1` (centres unmarked) [benzophetamine.HCl] the “% Mobilization” value (Amphetamine antibody; 2.5 μg/ml (0.8-2.1 × 10^-5 M)) was 12%.
With `COC(=O)[C@H]1[C@@H](OC(=O)c2ccccc2)C[C@@H]2CC[C@H]1N2C` [cocaine] the “% Mobilization” value (antibody (cocaine assay); 1 μg/ml) was 49% and the “% Mobilization” value (antibody (cocaine assay); 10 μg/ml) was 80%.
With `COc1ccc2c3c1O[C@H]1[C@@H](O)C=C[C@H]4[C@@H](C2)N(C)CC[C@@]341` [codeine] the “% Signal Increase” value (morphine antibody; [4]) was 75% and 62% and the “detection by the morphine assay” value (morphine antibodies) was “detected by the same procedure”.
In the case of `COc1ccc2c(c1)[C@]13CCCC[C@@H]1[C@H](C2)N(C)CC3` [dextromethorphan], the “% Mobilization” value (antibody (cocaine assay); 10 μg/ml) is reported as 33%.
For `CCC1(c2ccccc2)CCC(=O)NC1=O` (centres unmarked) [glutethimide], the “% Mobilization” value (phenobarbital antibody) was 0.5%.
In the case of `CC(=O)Oc1ccc2c3c1O[C@H]1[C@@H](OC(C)=O)C=C[C@H]4[C@@H](C2)N(C)CC[C@@]341` [heroin], the “% Signal Increase” value (morphine antibody; urine of single heroin user, day 2, drug taken on second and fifth days) is reported as 57%, the “% Signal Increase” value (morphine antibody; urine of single heroin user, day 3, drug taken on second and fifth days) is reported as 32% and the “% Signal Increase” value (morphine antibody; urine of single heroin user, day 4, drug taken on second and fifth days) is reported as 26%. For the same compound, the “% Signal Increase” value (morphine antibody; urine of single heroin user, day 5, drug taken on second and fifth days) was 47%, the “% Signal Increase” value (morphine antibody; urine of single heroin user, day 6, drug taken on second and fifth days) was 26% and the “% Signal Increase” value (morphine antibody; urine of single heroin user, day 7, drug taken on second and fifth days) was 16%. For the same compound, the “% Signal Increase” value (morphine antibody; urine of single heroin user, day 8, drug taken on second and fifth days) was 8%, the “% Signal Increase” value (morphine antibody; urine of single heroin user, day 9, drug taken on second and fifth days) was 40% and the “% Signal Increase” value (morphine antibody; [4]) was 81% and 100%.
With `CNC(C)(C)Cc1ccccc1` [mephentermine.H2 SO4] the “% Mobilization” value (Amphetamine antibody; 2.5 μg/ml (0.8-2.1 × 10^-5 M)) was 28%.
For `CNC(C)(C)Cc1ccccc1` [mephentermine], the “recognition by the amphetamine antibody” value (Amphetamine antibody) was “recognizes” and the “% Mobilization” value (antibody (cocaine assay); 10 μg/ml) was 35%.
For `CCC1(c2ccccc2)C(=O)NC(=O)N(C)C1=O` (centres unmarked) [mephobarbital], the “% Mobilization” value (phenobarbital antibody) was 32%.
For `COc1cc(CCN)cc(OC)c1OC` [mescaline], the “mobilization with urine” value (Amphetamine antibody) was “greater than 14%”.
With `CCC(=O)C(CC(C)N(C)C)(c1ccccc1)c1ccccc1` (centres unmarked) [methadone] the “detection by the morphine assay” value (morphine antibodies) was “insensitive”.
With `CNC(C)Cc1ccccc1` (centres unmarked) [methamphetamine.HCl] the “% Mobilization” value (Amphetamine antibody; 2.5 μg/ml (0.8-2.1 × 10^-5 M)) was 29%.
In the case of `CN[C@@H](C)Cc1ccccc1` [methamphetamine], the “recognition by the amphetamine antibody” value (Amphetamine antibody) is reported as “recognizes”.
For `CCC1(CC)C(=O)NC(=O)N(C)C1=O` [metharbital], the “% Mobilization” value (phenobarbital antibody) was 6%.
With `CN1CC[C@]23c4c5ccc(O[C@@H]6O[C@H](C(=O)O)[C@@H](O)[C@H](O)[C@H]6O)c4O[C@H]2[C@@H](O)C=C[C@H]3[C@H]1C5` [morphine-O^3 -glucuronide] the “detection by the morphine assay” value (morphine antibodies) was “can also be detected”.
For `C=CCN1CC[C@]23c4c5ccc(O)c4O[C@H]2[C@@H](O)C=C[C@H]3[C@H]1C5` [nalorphine], the “detection by the morphine assay” value (morphine antibodies) was “can also be detected”.
In the case of `CCCC(C)C1(CC)C(=O)NC(=O)NC1=O` (centres unmarked) [pentobarbital], the “minimum concentration that could be detected” value (secobarbital antibody) is reported as 2 µg/mL.
In the case of `NCCc1ccccc1` [phenethylamine], the “% Mobilization” value (Amphetamine antibody; 2.5 μg/ml (0.8-2.1 × 10^-5 M)) is reported as 26%.
With `CCC1(c2ccccc2)C(=O)NC(=O)NC1=O` [phenobarbital] the “% Mobilization” value (phenobarbital antibody) was 25%.
In the case of `CC(N)C(O)c1ccccc1` (centres unmarked) [phenylpropanolamine.HCl], the “% Mobilization” value (Amphetamine antibody; 2.5 μg/ml (0.8-2.1 × 10^-5 M)) is reported as 13%.
For `CC(N)C(O)c1ccccc1` (centres unmarked) [phenylpropanolamine], the “mobilization with urine” value (Amphetamine antibody) was “greater than 14%” and the “% Mobilization” value (antibody (cocaine assay); 10 μg/ml) was 26%.
For `CNC(C)CC1CCCCC1` (centres unmarked) [propylhexedrine.HCl], the “% Mobilization” value (Amphetamine antibody; 250 μg/ml (131 × 10^-5 M)) was 71%.
With `CN[C@@H](C)[C@@H](O)c1ccccc1` [pseudophedrine] the “mobilization with urine” value (Amphetamine antibody) was “greater than 14%”.
For `C=CCC1(C(C)CCC)C(=O)NC(=O)NC1=O` (centres unmarked) [secobarbital], the “% Mobilization” value (phenobarbital antibody) was 7% and the “sensitivity of the assay” value (secobarbital antibody) was “the greatest sensitivity is achieved with secobarbital”.
With `CCCC(C)C1(CC)C(=O)NC(=O)NC1=O` (centres unmarked) [sodium pentobarbital] the “% Mobilization” value (phenobarbital antibody) was 10%.
In the case of `CCC1(c2ccccc2)C(=O)NC(=O)NC1=O` [sodium phenobarbital], the “minimum concentration that could be detected” value (secobarbital antibody) is reported as 40 µg/mL.
In the case of `CCCC(C)C1(CC)C(=O)NC(=S)NC1=O` (centres unmarked) [thiopental sodium], the “minimum concentration that could be detected” value (secobarbital antibody) is reported as 3.5 µg/mL.
In the case of `CN(C)CCCN1c2ccccc2Sc2ccc(Cl)cc21` [thorazine], the “% Mobilization” value [3] is reported as 9%.
